Source: article PMC6017286, “VSP-17, a New PPARγ Agonist, Suppresses the Metastasis of Triple-Negative Breast Cancer via Upregulating the Expression of E-Cadherin” (Molecules : A Journal of Synthetic Chemistry and Natural …, 2018)

Target: T1, PPARγ (Homo sapiens, UniProt P37231)
T1 construct: gene PPARG; GST-fused human PPARγ-LBD
T1 sequence (P37231 231-505 limits assumed): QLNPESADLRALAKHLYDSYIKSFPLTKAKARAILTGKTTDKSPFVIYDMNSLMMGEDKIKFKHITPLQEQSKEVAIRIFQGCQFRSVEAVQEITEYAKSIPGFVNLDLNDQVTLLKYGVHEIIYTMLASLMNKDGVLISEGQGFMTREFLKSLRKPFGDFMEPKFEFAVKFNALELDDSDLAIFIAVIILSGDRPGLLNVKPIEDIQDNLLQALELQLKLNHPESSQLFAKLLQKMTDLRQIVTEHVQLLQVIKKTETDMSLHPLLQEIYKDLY
Assay: LanthaScreen TR-FRET competitive binding assay (displacement of fluorescent PPAR ligand)

Ki: 270 nM
SMILES: O=C(NCc1ccncc1)c1ccc2c(ccn2Cc2ccc(C(F)(F)F)cc2)c1 [VSP-17]
